Data reported in patent publication US12180167B1, “6-[4,4-bis(4-bromophenyl)-2,5-dioxoimidazolidin-1-yl]hexanoic acid as an antimicrobial compound” (KING FAISAL UNIVERSITY, priority 2024, dated 2024).

How the values were obtained:
Assay type in all cases: cell-based
Conditions in all cases: after 10, 20, 40 and 60 minutes at all dilutions 1:100, 1:200, 1:400, 1:800
[1] = test system: Staphylococcus aereus; experiment: Antimicrobial testing by agar dilution, St. Aereus
Procedure: (§1) The antimicrobial properties of the 6-[4,4-bis(4-bromophenyl)-2,5-dioxoimidazolidin-1-yl]hexanoic acid were studied by the method of agar dilution. Test solutions of each compound was prepared in concentration of 1% using dimethylformamide as a solvent then they are diluted in physiological solution to obtain the final experimental dilutions 1:100, 1:200, 1:400, 1:800. The effect of these substances are compared with furacillin in a controllable study. The testing microbes used were gram positive bacteria Staphylococcus aereus, gram negative bacteria Escherichia Coli, Pseudomonas aeruginosa and Candida albicans fungi were taken. The experiments used for this survey were meat-pentonlu agar (EPA) for cultivation of bacteria and Saburo environment for fungi. Each experiment used 1 ml of test solution on each plate 500 min. Add 2 drops of emulsified with microbes feel. All experimental samples were taken from the agar after 10, 20, 40, 60 minutes in the environment on the basis of Patrk planted. Bacteria were cultivated at a temperature of 37° C. for 1 day and the mushroom was kept in a thermostat for 2 hours at a temperature of 28° C. in the. Then results were checked.

[2] = test system: Escherichia Coli; experiment: Antimicrobial testing by agar dilution, E. Coli
Procedure: as §1

[3] = test system: Pseudomonas aeruginosa; experiment: Antimicrobial testing by agar dilution, Ps. aeruginosa
Procedure: as §1

[4] = test system: Candida albicans; experiment: Antimicrobial testing by agar dilution, Candida albicans
Procedure: as §1

O=C(O)CCCCCN1C(=O)NC(c2ccc(Br)cc2)(c2ccc(Br)cc2)C1=O [6-[4,4-bis(4-bromophenyl)-2,5-dioxoimidazolidin-1-yl]hexanoic acid]
higher inhibition activity: inhibition activity, Staphylococcus aereus [1] | inhibition activity, Escherichia Coli [2] | inhibition activity, Pseudomonas aeruginosa [3] | inhibition activity, Candida albicans [4]
